System: Plasmodium berghei
Test: Luciferase/luciferin-expressing antifolate-resistant parasites were used to infect a culture of HepG2 cells that were pre-incubated with compounds. Infected hepatocytes emit light due to the luciferase reaction. Assay results are presented as the percent inhibition of light emission compared to control. […]
Type: functional
Conditions: sporozoite; for IC90: read-out: LUCIFERASE INFECTION ASSAY - IC90

| SMILES | IC90 | also measured |
| --- | --- | --- |
| CN(C)c1cc[n+](CC(=O)Nc2ccc(OC(F)F)cc2)cc1 | > 10 µM | IC50 (HEPG2TOX_HILL_SLOPE 2.17, HEPG2TOX_R_SQUARED 0.89, read-out: LUCIFERASE INFECTION ASSAY - IC50): > 10 µM |
| CCCCOc1ccc(/C=C/C(=O)NNC(=O)Cc2nc3ccccc3n2C)cc1OCC | 9.1 µM | IC50 (HEPG2TOX_HILL_SLOPE 2.18, HEPG2TOX_R_SQUARED 0.787, PBLUC_HILL_SLOPE 13.4, PBLUC_R_SQUARED 0.401, read-out: LUCIFERASE INFECTION ASSAY - IC50): 7.73 µM |
| COc1cc(-c2ccc3ncc(-c4cccc(C(C)=O)c4)n3n2)cc(OC)c1OC | 1.39 µM | IC50 (HEPG2TOX_HILL_SLOPE 2.19, HEPG2TOX_R_SQUARED 0.885, PBLUC_HILL_SLOPE 9.54, PBLUC_R_SQUARED 0.57, read-out: LUCIFERASE INFECTION ASSAY - IC50): 1.11 µM |
| Cc1ccccc1-c1cc2c(cn1)nc(NCc1ccccc1F)n2C | 8.53 µM | IC50 (HEPG2TOX_HILL_SLOPE 2.16, HEPG2TOX_R_SQUARED 0.829, PBLUC_HILL_SLOPE 2.78, PBLUC_R_SQUARED 0.577, read-out: LUCIFERASE INFECTION ASSAY - IC50): 3.87 µM |
| COc1ccc(N(CCCN2C(=O)c3cccc4cccc(c34)C2=O)C(=O)c2ccccc2Cl)cc1 | 0.656 µM | IC50 (HEPG2TOX_HILL_SLOPE 2.18, HEPG2TOX_R_SQUARED 0.863, PBLUC_HILL_SLOPE 2.29, PBLUC_R_SQUARED 0.755, read-out: LUCIFERASE INFECTION ASSAY - IC50): 0.251 µM |
| Cc1ccc(-c2cnc3ccc(NC4CCOCC4)nn23)cc1C | 4.53 µM | IC50 (HEPG2TOX_HILL_SLOPE 2.16, HEPG2TOX_R_SQUARED 0.752, PBLUC_HILL_SLOPE 1.94, PBLUC_R_SQUARED 0.563, read-out: LUCIFERASE INFECTION ASSAY - IC50): 1.46 µM |
| Cc1ccc(S(=O)(=O)N2CCSc3cc(Cl)ccc32)cc1 | 3.49 µM | IC50 (HEPG2TOX_HILL_SLOPE 2.16, HEPG2TOX_R_SQUARED 0.961, PBLUC_HILL_SLOPE 19.3, PBLUC_R_SQUARED 0.449, read-out: LUCIFERASE INFECTION ASSAY - IC50): 3.12 µM |
| COc1ccc(C2=NN=C/C2=N\Nc2ccccc2)cc1 | 3.89 µM | IC50 (HEPG2TOX_HILL_SLOPE 2.19, HEPG2TOX_R_SQUARED 0.971, PBLUC_HILL_SLOPE 2.49, PBLUC_R_SQUARED 0.567, read-out: LUCIFERASE INFECTION ASSAY - IC50): 1.61 µM |
| Clc1ccc(-c2cnc3cnc(-c4cccnc4)cn23)cc1 | 1.8 µM | IC50 (HEPG2TOX_HILL_SLOPE 2.16, HEPG2TOX_R_SQUARED 0.901, PBLUC_HILL_SLOPE 2.19, PBLUC_R_SQUARED 0.923, read-out: LUCIFERASE INFECTION ASSAY - IC50): 0.659 µM |
| COc1cc(C#N)ccc1Oc1ccnc2cc(Cl)ccc12 | > 10 µM | IC50 (HEPG2TOX_HILL_SLOPE 2.16, HEPG2TOX_R_SQUARED 0.625, PBLUC_HILL_SLOPE 9.16, PBLUC_R_SQUARED 0.449, read-out: LUCIFERASE INFECTION ASSAY - IC50): 8.55 µM |
| COc1ccccc1-c1cc(NC(C)=O)c2ncc(-c3cc(OC)c(OC)c(OC)c3)n2c1 | 2.96 µM | IC50 (HEPG2TOX_HILL_SLOPE 2.18, HEPG2TOX_R_SQUARED 0.547, PBLUC_HILL_SLOPE 12.3, PBLUC_R_SQUARED 0.226, read-out: LUCIFERASE INFECTION ASSAY - IC50): 2.47 µM |
| COc1ccc(Br)cc1-c1nc(CN2C(=O)NC(C)(c3ccccc3)C2=O)cs1 (stereo not given) | 5.61 µM | IC50 (HEPG2TOX_HILL_SLOPE 2.19, HEPG2TOX_R_SQUARED 0.876, PBLUC_HILL_SLOPE 2.71, PBLUC_R_SQUARED 0.259, read-out: LUCIFERASE INFECTION ASSAY - IC50): 2.49 µM |
| COC(=O)c1ccc2[nH]c3c(c2c1)CN(c1ncnc2ccccc12)CC3 | 9.79 µM | IC50 (HEPG2TOX_HILL_SLOPE 2.18, 2.21, HEPG2TOX_R_SQUARED 0.310, 0.448, PBLUC_HILL_SLOPE 1.05, 1.29, PBLUC_R_SQUARED 0.612, 0.824, read-out: LUCIFERASE INFECTION ASSAY - IC50): 1.63 µM |
| O=S(=O)(Nc1cc(F)c(Br)cc1F)c1cc(C(F)(F)F)cc(C(F)(F)F)c1 | > 6.82 µM | IC50 (HEPG2TOX_HILL_SLOPE 2.19, HEPG2TOX_R_SQUARED 0.933, PBLUC_HILL_SLOPE 2.47, PBLUC_R_SQUARED 0.245, read-out: LUCIFERASE INFECTION ASSAY - IC50): 2.98 µM |
| O=C(NC1CC1)c1ccc(-c2cnc3c(NCc4ccc5c(c4)OCO5)nccn23)cc1 | 2.99 µM | IC50 (HEPG2TOX_HILL_SLOPE 2.15, HEPG2TOX_R_SQUARED 0.624, PBLUC_HILL_SLOPE 12.5, PBLUC_R_SQUARED 0.564, read-out: LUCIFERASE INFECTION ASSAY - IC50): 2.51 µM |
| CCCNC(=O)c1csc(C(O)c2ccc(C(C)(C)C)cc2)n1 (stereo not given) | > 10 µM | IC50 (HEPG2TOX_HILL_SLOPE 2.18, HEPG2TOX_R_SQUARED 0.794, read-out: LUCIFERASE INFECTION ASSAY - IC50): > 10 µM |
| CO[C@H]1[C@H](C)O[C@@H](O[C@H]2CC[C@]3(C)C4C[C@@H](O)[C@]5(C)[C@@H](C6=CC(=O)OC6)[C@@H](OC(C)=O)C[C@]5(O)C4CC[C@@H]3C2)C[C@@H]1O (stereo not given in full) | 0.626 µM | IC50 (HEPG2TOX_HILL_SLOPE 2.15, HEPG2TOX_R_SQUARED 0.965, PBLUC_HILL_SLOPE 1.44, PBLUC_R_SQUARED 0.806, read-out: LUCIFERASE INFECTION ASSAY - IC50): 0.136 µM |
| Cc1ccc2nc(NC(=O)c3ccc(C#N)cc3)c(C(=O)NC3CCCCC3)n2c1 | > 8.22 µM | IC50 (HEPG2TOX_HILL_SLOPE 2.19, HEPG2TOX_R_SQUARED 0.834, PBLUC_HILL_SLOPE 2.97, PBLUC_R_SQUARED 0.239, read-out: LUCIFERASE INFECTION ASSAY - IC50): 4.92 µM |
| CC(C)c1nc2ccccc2n1Cc1cccc2ccccc12 | 4.17 µM | IC50 (HEPG2TOX_HILL_SLOPE 2.18, HEPG2TOX_R_SQUARED 0.953, PBLUC_HILL_SLOPE 14.4, PBLUC_R_SQUARED 0.432, read-out: LUCIFERASE INFECTION ASSAY - IC50): 3.58 µM |
| CCOc1ccc(OCC)c(S(=O)(=O)Oc2cccc3ccc(C)nc23)c1 | > 8.52 µM | IC50 (HEPG2TOX_HILL_SLOPE 2.15, HEPG2TOX_R_SQUARED 0.762, PBLUC_HILL_SLOPE 2.2, PBLUC_R_SQUARED 0.11, read-out: LUCIFERASE INFECTION ASSAY - IC50): 7.25 µM |
| COc1ccc(C2C(C(=O)OCc3cccc4ccccc34)CCC(=O)N2c2ccc(C)cc2)cc1OC (stereo not given) | > 10 µM | IC50 (HEPG2TOX_HILL_SLOPE 2.17, HEPG2TOX_R_SQUARED 0.745, PBLUC_HILL_SLOPE 19.2, PBLUC_R_SQUARED 0.577, read-out: LUCIFERASE INFECTION ASSAY - IC50): 9.58 µM |
| CCn1c(=O)c(C)nc2cc(C(=O)Nc3ccc(C(C)(C)C)cc3)ccc21 | 1.74 µM | IC50 (HEPG2TOX_HILL_SLOPE 2.17, HEPG2TOX_R_SQUARED 0.922, PBLUC_HILL_SLOPE 3.75, PBLUC_R_SQUARED 0.489, read-out: LUCIFERASE INFECTION ASSAY - IC50): 0.966 µM |
| c1ccc(-c2cn3ccnc3c(NCc3ccncc3)n2)cc1 | 4.49 µM | IC50 (HEPG2TOX_HILL_SLOPE 2.19, HEPG2TOX_R_SQUARED 0.99, PBLUC_HILL_SLOPE 12.4, PBLUC_R_SQUARED 0.482, read-out: LUCIFERASE INFECTION ASSAY - IC50): 3.76 µM |
| COc1cc(/C=N/n2cnc3scc(-c4ccc(C)cc4)c3c2=O)ccc1OC(=O)OC(C)(C)C | > 10 µM | IC50 (HEPG2TOX_HILL_SLOPE 2.15, HEPG2TOX_R_SQUARED 0.967, PBLUC_HILL_SLOPE 2.51, PBLUC_R_SQUARED 0.415, read-out: LUCIFERASE INFECTION ASSAY - IC50): 4.26 µM |
| COc1ccc(OC)c(CCNc2nc3cnc(-c4cncnc4)cc3n2C)c1 | > 10 µM | IC50 (HEPG2TOX_HILL_SLOPE 2.17, HEPG2TOX_R_SQUARED 0.775, PBLUC_HILL_SLOPE 2.72, PBLUC_R_SQUARED 0.417, read-out: LUCIFERASE INFECTION ASSAY - IC50): 4.95 µM |
| Cc1nnsc1C(=O)Nc1cccc(C(F)(F)F)c1 | 10.6 µM | IC50 (HEPG2TOX_HILL_SLOPE 2.18, HEPG2TOX_R_SQUARED 0.919, PBLUC_HILL_SLOPE 3.32, PBLUC_R_SQUARED 0.374, read-out: LUCIFERASE INFECTION ASSAY - IC50): 5.46 µM |
| C/C(=N\NC(=N)N)c1ccc(Br)cc1 | > 12.9 µM | IC50 (HEPG2TOX_HILL_SLOPE 2.15, HEPG2TOX_R_SQUARED 0.936, PBLUC_HILL_SLOPE 0.739, PBLUC_R_SQUARED 0.608, read-out: LUCIFERASE INFECTION ASSAY - IC50): 5.11 µM |
| CCc1cccc2c(C3=CCN(c4ccc([N+](=O)[O-])cn4)CC3)c[nH]c12 | > 10 µM | IC50 (HEPG2TOX_HILL_SLOPE 2.16, 2.30, HEPG2TOX_R_SQUARED 0.931, 0.732, PBLUC_HILL_SLOPE 2.67, 4.10, PBLUC_R_SQUARED 0.259, 0.404, read-out: LUCIFERASE INFECTION ASSAY - IC50): 5.92 µM |
| CCN1C(=O)N(CC(N)=O)C(=O)C12CCN(Cc1ccc(N(C)c3ccccc3)cc1)CC2 | > 7.34 µM | IC50 (HEPG2TOX_HILL_SLOPE 2.17, HEPG2TOX_R_SQUARED 0.96, PBLUC_HILL_SLOPE 2.1, PBLUC_R_SQUARED 0.458, read-out: LUCIFERASE INFECTION ASSAY - IC50): 3.27 µM |
| C[C@]12CC[C@H](O)C[C@H]1CCC1C2CC[C@]2(C)[C@@H](C3=CC(=O)OC3)CC[C@]12O (stereo not given in full) | 0.225 µM | IC50 (HEPG2TOX_HILL_SLOPE 2.19, HEPG2TOX_R_SQUARED 0.915, PBLUC_HILL_SLOPE 1.64, PBLUC_R_SQUARED 0.798, read-out: LUCIFERASE INFECTION ASSAY - IC50): 0.0591 µM |
